Measurements as given in ChEMBL document CHEMBL3988442, “University of Dundee, Small-Polar-MMV Screening Library” (2021).

Tests used:
[1] = microbe, parasite or virus in culture; conditions: Mycobacterium tuberculosis, 96 h, read-out: pIC50 (converted)
[2] = microbe, parasite or virus in culture; conditions: Mycobacterium tuberculosis, 72 h, read-out: pIC50 (converted)

Compound | IC50 [1] | IC50 [2]
CCOC1COC2(CCN(Cc3ccc4c(c3)OCO4)CC2)C1 (centres undefined) | > 50.1 µM | > 50.1 µM
CC(C)Nc1nc(N2CCCC2)nc2c1CN(C(C)C)CC2 | 15.8 µM | 26.5 µM
Fc1cccc(Cl)c1CNCCOc1ccccn1 | > 50.1 µM | > 50.1 µM
CCN(CC)C(=O)CN1CCC2(C=Cc3cc(Cl)c(C)cc3O2)CC1 | > 50.1 µM | 31.4 µM
Fc1ccccc1CN1CCC[C@H](Cn2nnc(-c3cccs3)n2)C1 | 26.3 µM | 12.9 µM
CC1(c2ncc(CN3CCN(c4ncccn4)CC3)cn2)CCCCO1 (centres undefined) | > 50.1 µM | > 50.1 µM
CCOc1cc([C@H]2N[C@@H](c3nc(C)cs3)Cc3ccsc32)ccc1OC | > 50.1 µM | 12.8 µM
Clc1ccc(OCCc2cc(C3CCN(c4ncccn4)C3)n[nH]2)cc1 (centres undefined) | 26.1 µM | 40 µM
CNC(=O)C1CN(C(=O)c2cccs2)CCN(S(C)(=O)=O)C1 (centres undefined) | > 50.1 µM | > 50.1 µM
COc1cc(CCC(=O)N2CCC(c3cc4nccnc4[nH]3)CC2)on1 | > 50.1 µM | 30.7 µM
Nc1cc(-c2c[nH]nc2C2CCCCN2C(=O)C2CCCC2)ccn1 (centres undefined) | > 50.1 µM | > 50.1 µM
CC(C)N1CC(C(=O)NCc2ccc(S(=O)(=O)N(C)C)cc2)CC1=O (centres undefined) | > 50.1 µM | > 50.1 µM
CN(CC1(C)COC1)C(=O)c1cc(-c2cnn(C)c2)nc2ccccc12 | > 50.1 µM | > 50.1 µM
CCc1ccccc1NC(=O)NCc1nnc(SC)n1C | > 50.1 µM | > 50.1 µM
O=C(c1cnc(C2CC2)nc1)N1CCCC(c2nccs2)C1 (centres undefined) | 6.43 µM | 8.4 µM
CN(C)c1cc(C2CCCN(C(=O)c3noc4c3CCCC4)C2)ccn1 (centres undefined) | 35.7 µM | 40 µM
NC(=O)C1(c2cnccn2)CCCN1C(=O)Cc1ccsc1 (centres undefined) | > 50.1 µM | > 50.1 µM
O=C1NC2(CCCN(C(=O)CCn3cccn3)C2)Oc2ccccc21 (centres undefined) | > 50.1 µM | 39.4 µM
CC(C)n1nnc(CC(=O)NCC2(c3cccc(F)c3)CCCC2)n1 | > 50.1 µM | > 50.1 µM
c1ccc(Cc2cccc(C3CCCN3C3CCOCC3)n2)cc1 (centres undefined) | > 50.1 µM | 13.2 µM
Cc1cccc(C2(O)CCN(Cc3ccccc3N3CCCC3)CC2)c1 | 20.7 µM | 12.1 µM
CN1CCCC(c2cccc(-c3cccc(C(F)(F)F)c3)n2)C1 (centres undefined) | 3.45 µM | 2.88 µM
O=C(NC[C@H]1CC[C@H](c2ccnc3ncnn32)CC1)C1CC1 | > 50.1 µM | > 50.1 µM

Compound | IC50 [1] | IC50 [2]
O=C(NCC1(O)COCCN(Cc2cccc(O)c2)C1)c1cscn1 (centres undefined) | > 50.1 µM | > 50.1 µM
Cc1cc(CN2CCc3nc(C(C)C)nc(O)c3CC2)c(C)s1 | > 50.1 µM | > 50.1 µM
Cc1noc(-c2c[nH]nc2C2CCCN2C(=O)c2ccccc2)c1C (centres undefined) | > 50.1 µM | > 50.1 µM
O=C(CCC1CCCC1)N1CCC(c2cc3ncccc3c(O)n2)CC1 | 0.855 µM | > 50.1 µM
Cn1cncc1CN1CCCC1c1cncc(Oc2ccc(F)cc2)n1 (centres undefined) | > 50.1 µM | 19.4 µM
O=C(c1ccno1)N1CCCC(c2ncncc2-c2ccncc2)C1 (centres undefined) | > 50.1 µM | > 50.1 µM
NCCn1nc(C2CCN(Cc3ccccc3Cl)C2)c2nccnc21 (centres undefined) | > 50.1 µM | > 50.1 µM
Cc1nc(Nc2ncccn2)cc(C2CN(C(=O)c3cccnc3)C2)n1 | > 50.1 µM | > 50.1 µM
c1cncc(CN2CCCC(c3nnc(-c4cnccn4)o3)C2)c1 (centres undefined) | > 50.1 µM | > 50.1 µM
COc1ccc(CNc2ncc(-c3cc(C)no3)c(C(C)C)n2)cc1 | > 50.1 µM | > 50.1 µM
CC(=O)NCC(=O)N1C[C@@H]2CC[C@H](Oc3ccccc3Cl)[C@@H]2C1 | > 50.1 µM | > 50.1 µM
Cc1cc(C)nc(N2CCCC(c3cccc(-n4ccnc4)n3)C2)n1 (centres undefined) | 28.7 µM | 26.9 µM
CC(=O)N1CCCC(c2cnc(-c3c(C)nn(C)c3C)cn2)C1 (centres undefined) | > 50.1 µM | > 50.1 µM
CN1CCC(Cc2cc(Nc3ncccn3)ncn2)CC1 | > 50.1 µM | > 50.1 µM
CC(=O)N1CCCC1c1cccc(Cc2ccccc2F)n1 (centres undefined) | 39 µM | 29.2 µM
NC(=O)NC(=O)CCN(Cc1ccccc1)CC1CCOCC1 | 35.7 µM | 28.7 µM
N#Cc1cc(Cl)ccc1N1CCN(C(=O)C2CCC2)CC1 | > 50.1 µM | > 50.1 µM
CN(C)S(=O)(=O)c1ccc(CN2CCC(C(N)=O)CC2)o1 | > 50.1 µM | > 50.1 µM
Cc1n[nH]cc1CNCC(c1ccsc1)N(C)C (centres undefined) | > 50.1 µM | > 50.1 µM
NC(=O)C1CCN(Cc2ccc(S(=O)(=O)N3CCCC3)o2)CC1 | > 50.1 µM | > 50.1 µM
COCCC1(CNC(=O)NCC2CCCS2)CCCC1 (centres undefined) | > 50.1 µM | > 50.1 µM
COC(=O)c1ccc(C(=O)NCc2ccc(Br)cc2)cn1 | 25.6 µM | 24.8 µM
CCn1nnc2c1C(COCC(=O)N(C)C)CN(Cc1ccoc1)C2 (centres undefined) | > 50.1 µM | > 50.1 µM

Compound | IC50 [1] | IC50 [2]
Cn1cccc1C(=O)N1CCN2C[C@H](Oc3cccnc3)C[C@H]2C1 | > 50.1 µM | > 50.1 µM
Cc1nn(C)cc1S(=O)(=O)NCC(c1ccccc1)N1CCCCCC1 (centres undefined) | > 50.1 µM | > 50.1 µM
COc1cc2c(cc1CNC(Cc1cccs1)c1nccs1)OCO2 (centres undefined) | 17.3 µM | > 50.1 µM
Cc1cc2c(cc1CNC(Cc1cccs1)c1nccs1)OCO2 (centres undefined) | > 50.1 µM | 24.4 µM
FC(F)(F)c1ccc(-c2cnc(C3CCCN3)cn2)cc1 (centres undefined) | 2.02 µM | 13.9 µM
O=c1c2sccc2nc2n1CCN(Cc1ccc(F)c(F)c1)CC2 | 4.05 µM | > 50.1 µM
CCOc1ccc(CN2CCc3nc4ccsc4c(=O)n3CC2)cc1 | 16.3 µM | 37.8 µM
O=c1c2sccc2nc2n1CCN(Cc1ccccc1C(F)(F)F)CC2 | > 50.1 µM | > 50.1 µM
O=c1c2sccc2nc2n1CCN(Cc1cc(F)ccc1F)CC2 | > 50.1 µM | 25 µM
Clc1ccccc1CN1CCc2nc(C3CCNCC3)ncc2C1 | > 50.1 µM | 4.89 µM
Cn1nc(C2CCCN(Cc3cc(F)ccc3F)C2)c2nccnc21 (centres undefined) | > 50.1 µM | > 50.1 µM
O=C(c1cccnc1)N1CCC2(CC1)CNc1c(F)cccc12 | > 50.1 µM | > 50.1 µM
Cc1nc(N2CCCC2)nc2c1CCN(Cc1ccco1)CC2 | 4.23 µM | 4.72 µM
CCN1CC2(CC1=O)CN(Cc1cnn(C)c1)CCN(C(=O)C(C)C)C2 (centres undefined) | > 50.1 µM | > 50.1 µM
CS(=O)(=O)NC[C@H]1OC[C@@H]2CCN(CCc3ccccc3)C[C@@H]21 | > 50.1 µM | > 50.1 µM
c1cnc(N2CC[C@@H](OCC3CC3)[C@@H]2Cc2cccnc2)nc1 | > 50.1 µM | > 50.1 µM
O=C(Nc1cccnc1)[C@H]1COC[C@H]2CN(C3CCCC3)C[C@H]21 | > 50.1 µM | > 50.1 µM
O=C1N(Cc2cccnc2)CCC12CCCN(c1ncccn1)C2 (centres undefined) | > 50.1 µM | > 50.1 µM
CCc1ncc(CN(CCc2ccccc2)Cc2cccs2)cn1 | 9.25 µM | 19.7 µM
Cc1cc(C[C@@H]2COC[C@H]2NCc2ccc(C(C)C)cc2)on1 | 11.5 µM | 34.6 µM
CCc1ccc(CN(CCCn2ccnc2)Cc2ccc(C)s2)o1 | 36.8 µM | 37.5 µM
